One series in a line: Caco-2 permeability test. Type of series: in vitro ADME, human. The note with it: human, Caco-2, 2.4 μM. The procedure: E-3. Further Characterization E-3.1 Caco-2 Permeability Test
The in vitro permeation of a test compound across a Caco-2 cell monolayer is a well-established assay system to predict the permeability from the gastro-intestinal tract (1). The permeability of the compounds of the present invention in such Caco-2 cells was determined as described below:
Human caco-2 cells were seeded on 24-well insert plates and were allowed to grow for 14-16 days. For permeability studies, the test compounds were dissolved in DMSO and diluted to the final test concentration of 2 μM with transport buffer [Hanks' Buffered Salt Solution, Gibco/Invitrogen, further supplemented with glucose and HEPES]. For determination of the apical to basolateral permeability (PappA-B), the test compound solution was added to the apical side of the cell monolayer and transport buffer to the basolateral side of the monolayer; for determination of the basolateral to apical permeability (PappB-A), the test compound solution was added to the basolateral side of the cell monolayer and transport buffer to the apical side of the monolayer. Samples were taken from the donor compartment at the beginning of the experiment to confirm mass balance. After an incubation of 2 h at 37° C., samples were taken from both compartments. Samples were analyzed by LC-MS/MS, and the apparent permeability coefficients were calculated. Lucifer Yellow permeability was assayed for each cell monolayer to ensure cell monolayer integrity, and the permeability of Atenolol (low permeability marker) and Sulfasalazine (marker for active excretion) was determined for each batch as quality control.

The test system of series [1] is patients with severe pulmonary hypertension. The settings on record: cited from earlier work.
For series [2], the system named is thromboxane A2 challenged PAH-minipig. Briefly: Haemodynamics in the anesthetized thromboxane challenged minipig, inhaled nebulized solution (PAP, BP). The series is classed as in vivo, Göttingen Minipigs. The note with it: 10 μg/kg nominal dose inhaled, mean. The procedure:
E-1 Haemodynamics in the Anesthetized Thromboxane Challenged Minipig
Lung Selectivity and Duration of Action
Healthy Göttingen Minipigs® Ellegaard (Ellegaard, Denmark) of both sexes and having a weight of 2-6 kg were used. The animals were sedated by i.m. administration of about 25 mg/kg ketamine and about 10 mg/kg azaperone. Anaesthesia was initiated by i.v. administration of about 2 mg/kg ketamine and about 0.3 mg/kg midazolam. Maintenance of anaesthesia was by i.v. administration of about 7.5-30 mg/kg/h ketamine and about 1-4 mg/kg/h midazolam (rate of infusion 1-4 ml/kg/h) and about 150 μg/kg/h pancuronium bromide (for example Pancuronium-Actavis). After intubation, the animals were ventilated by the ventilator at a constant respiratory volume (10-12 ml/kg, 35 breaths/min; Avea®, Viasys Healthcare, USA, or Engström Carestation, GE Healthcare, Freiburg, Germany) such that an end-tidal CO2 concentration of about 5% was achieved. Ventilation was performed with room air, enriched with about 40% oxygen (normoxia). For the measurement of the haemodynamic parameters such as pulmonary arterial pressure (PAP), blood pressure (BP) and heart rate (HR), catheters were inserted into the carotid artery to measure the blood pressure, and a Swan-Ganz® catheter was introduced in a flow-directed manner via the jugular vein into the pulmonary artery. The haemodynamic signals were recorded and evaluated by means of pressure transducers (Combitransducer, B. Braun, Melsungen, Germany)/amplifiers and Ponemah® as data acquisition software.
After the instruments have been placed into the animals, continuous infusion of a thromboxane A2 analog was initiated to increase the pulmonary arterial pressure. About 0.3-0.75 μg/kg/min of 9,11-didesoxy-9α,11α-epoxymethanoprostaglandine F2α (U-44069; Sigma, cat. no. D0400, or Cayman Chemical Company, cat. no. 16440), dissolved in physiological saline, were infused to achieve an increase of the mean pulmonary arterial pressure to values of over 25 mmHg. 30 minutes after the start of the infusion, a plateau was reached, and the experiment was started.
The test substances were administered as i.v. infusion or by inhalation. For the preparation of the solution for inhalation, the following procedure was adopted: For an animal having a weight of 4 kg, to prepare the stock solution (300 μg/kg), 1.2 mg of the test compound were weighed out and dissolved in a total volume of 3 ml (1% DMSO, 99% 0.2% strength citric acid solution, 1 n aqueous sodium hydroxide solution to adjust the pH to 8). The solution was then diluted to the concentration employed using 0.2% strength citric acid which had been adjusted to pH 8 beforehand with aqueous sodium hydroxide solution. In each test, 3 ml of the solution of test compound per 4 kg animal were nebulized in the inhalation arm of the respiratory circuit using the Aeroneb® Pro nebulizer system. The mean nebulization time was about 7 min from the start of the nebulization.
With respect to a prediction of the duration of action for human studies comparative example 11 was compared in the PAH minipig model after inhaled application to Ventavis® (=Iloprost, 10 μg/kg nominal dose), which we used as a clinical reference. […] Therefore, the duration of action is more than 6 times longer compared to Ventavis in this preclinical animal model.

For series [3], the system named is animal model of pulmonary hypertension. The note with it: cited from earlier work.

One may read the efflux ratio as a quotient of directional permeabilities that is used to spot active efflux.

`COC(=O)N(C)c1c(N)nc(-c2nn(Cc3ccccc3F)c3ncccc23)nc1N` [Comparative example 2 (Riociguat)]: the efflux ratio at 2 h, 2.4 μM in the series “Caco-2 permeability test” amounted to 11 ± 3.3. Also, the Papp A→B at 2 h, 2.4 μM in “Caco-2 permeability test” (2 h at 37° C., read-out: Papp A − B (mean +/− SD)) is 3.5 ± 0.84 ×10⁻⁶ cm/s. Further, the Papp B→A at 2 h, 2.4 μM in the series “Caco-2 permeability test” (2 h at 37° C., read-out: Papp B − A (mean +/− SD)) amounted to 36.7 ± 7.5 ×10⁻⁶ cm/s.
For `CCCCC[C@H](O)CC[C@@H]1[C@H]2Cc3cccc(OCC(=O)O)c3C[C@H]2C[C@H]1O` [Treprostinil], the “mean change in PVR from baseline” value in series [1] (inhaled, single administration, historical comparison) is “approximately −30%”.
Consider `CC#CCC(C)[C@H](O)/C=C/[C@@H]1[C@H]2C/C(=C/CCCC(=O)O)C[C@H]2C[C@H]1O` (stereo partly shown) [Ventavis ®], for which the “PAP % changes vs prevalue” was 0% in series [2] (time 0 min); −30.3% in series [2] (time 10 min); −20.7% in series [2] (time 20 min); −6.9% in series [2] (time 30 min); 1.7% in series [2] (time 40 min); 4.9% in series [2] (time 50 min).
As for `CC#CCC(C)[C@H](O)/C=C/[C@@H]1[C@H]2C/C(=C/CCCC(=O)O)C[C@H]2C[C@H]1O` (stereo partly shown) [Ventavis], the “duration of action on haemodynamics (PVR)” value in series [1] (clinical studies) is recorded as “about 60 min”.
Consider `O=C(O)CCCCN(CCc1ccccc1OCc1ccc(CCc2ccccc2)cc1)Cc1ccc(C(=O)O)cc1` [comparative example 1], for which the “effect on pulmonary arterial pressure” value in series [3] (inhalative administration in the form of microparticles) was “dose-dependent selective reduction of the pulmonary arterial pressure”. Also, the duration of action result in series [3] (inhalative administration) is “did not have a sufficient duration of action”.

The values are drawn from patent publication US12202805B2, “Process for preparing (5S)-{[2-(4-carboxyphenyl)ethyl] |2-(2-{|3-chloro-4'-(trifluoromethyl)biphenyl-4-yl]methoxy}phenyl)ethyl]aminol-5,6,7,8-tetrahydroquinoline-2-carboxylic acid and its crystalline forms for use as pharmaceutically active compound” (Bayer Aktiengesellschaft, priority 2021, dated 2025).
